Measurements as given in patent US10918626B2, “Method for improving pharmacokinetics” (Roche Palo Alto LLC, priority 2009, dated 2021).
Read-outs that look alike come from different tables or passages of the source.

Tests used:
[1] = Pharmacokinetic enhancement of R7227 by ritonavir in healthy adults; format: in vivo, human; conditions: for concentration at 12 h / Cmax / AUC(0-inf): human, plasma; for concentration at 12 h: read-out: C12 h, GLSM; for Cmax / AUC(0-inf): N 12
Procedure: Subjects were screened for participation in this study within 21 days before dosing. The study enrolled 14 healthy volunteers (n=14 per group). The dosing schedule is illustrated below: [table] […] was formulated into clear size 10 oval soft gelatin capsules for oral administration at a strength of 100 mg per capsule (anhydrous free acid equivalent). The capsule fill solution consists of […]-001, polyethylene glycol PEG400 (Macrogol 400), and butylated hydroxytoluene (BHT). All excipients are compendial grade (NF or EP). Gelatin Type 195 (NF, EP) is used as the bulk gel mass for the capsule shell, with small amounts of sorbitol liquid 85/70/00 (NF, EP) and water (USP) used as plasticizers. All study medications were with a meal. […] was administered orally as a single dose of a 100 mg soft gel capsule on days 1, 3 and 12. […] Blood samples (5 mL) were collected to determine plasma concentrations of […] (and metabolites when assays were available) according to the following schedule Day 1, PK samples (5 mL) were be collected before […] dosing (predose) and at 0.5, 1, 1.5, 2, 2.5, 3, 3.5, 4, 6, 8, 12, and 24 hours after […] dosing; Days 3 and 12, PK samples (5 mL) were collected before […] dosing (predose) and at 0.5, 1, 1.5, 2, 2.5, 3, 3.5, 4, 6, 8, 12, 24, 36, and 48 hours after […] dosing. Primary PK parameters of […] that were determined are Cmax and AUC0→∞. Secondary PK parameters of […] that were measured include Tmax and AUC0→last, CL/F, t1/2, C12 hr and C24 h. Analysis of variance (ANOVA) was applied to the log-transformed primary pharmacokinetic parameters. Two-sided 90% confidence intervals for the ratios of the geometric means of the primary parameters (AUC0→∞ and Cmax of […]) were derived for the following comparisons: […] Analysis of variance (ANOVA) was used to analyze all primary study parameters using the following model: Yij=μ+τi+sj+εij where Yij denotes the PK parameter to be analyzed, μ denotes the general mean of the transformed variable, τi, the fixed effect of treatment; sj the random effect of subject; εij (error). The random deviations εij are assumed to be independent and normally distributed with zero mean and common variance σ^2. The group comparisons τ […]+Ritonavir-τ[…], the residual variance σ^2, and the 90% confidence limits for the group comparisons were estimated from the ANOVA model. For log-transformed variables (AUC0→∞ and Cmax), the ratio of true group means and the confidence limits for the corresponding ratio of means of the untransformed variables will be calculated by exponentiation of the least squares means differences and the confidence limits for the transformed values, respectively.

[2] = SAD study in healthy volunteers; format: in vivo, human
From the text: (A. A. Mathias et al., Clin. Pharmacol. Ther. 2009 85(1)64-70).

[3] = biological target: recombinant CYPs (Homo sapiens, UniProt P08684); assay: metabolism by recombinant CYPs; format: in vitro ADME
From the text: (§1) Therefore, a cytochrome P450 monooxygenase inhibitor in an amount effective to inhibit metabolism of the protease inhibitor could increase the bioavailability of R7227 compared to administration in the absence of the CYP inhibitor.

[4] = system: CYP isozymes; assay: cytochrome P450 phenotyping using chemical inhibitors; format: in vitro ADME
From the text: as §1

[5] = biological target: T1, NS3/4A protease (Hepatitis C virus genotype 1a, UniProt P27958); assay: NS3/4A proteolysis inhibition; format: biochemical; conditions: read-out: 50% inhibitory concentration (IC50), NS3/4A proteolysis
T1 construct: a serine protease encoded in the NS3 region

[6] = system: genotype 1 HCV replicon; assay: cell-based potency assay employing a genotype 1 HCV replicon; conditions: Hepatitis C virus
[7] = system: HCV; conditions: monotherapy; cited from earlier work
[8] = po, 100 mg, Day 1 (alone), R7227 100 mg single oral dose
[9] = multiple doses of ritonavir 100 mg every 12 hours

recombinant CYPs, sequence (P08684 whole entry): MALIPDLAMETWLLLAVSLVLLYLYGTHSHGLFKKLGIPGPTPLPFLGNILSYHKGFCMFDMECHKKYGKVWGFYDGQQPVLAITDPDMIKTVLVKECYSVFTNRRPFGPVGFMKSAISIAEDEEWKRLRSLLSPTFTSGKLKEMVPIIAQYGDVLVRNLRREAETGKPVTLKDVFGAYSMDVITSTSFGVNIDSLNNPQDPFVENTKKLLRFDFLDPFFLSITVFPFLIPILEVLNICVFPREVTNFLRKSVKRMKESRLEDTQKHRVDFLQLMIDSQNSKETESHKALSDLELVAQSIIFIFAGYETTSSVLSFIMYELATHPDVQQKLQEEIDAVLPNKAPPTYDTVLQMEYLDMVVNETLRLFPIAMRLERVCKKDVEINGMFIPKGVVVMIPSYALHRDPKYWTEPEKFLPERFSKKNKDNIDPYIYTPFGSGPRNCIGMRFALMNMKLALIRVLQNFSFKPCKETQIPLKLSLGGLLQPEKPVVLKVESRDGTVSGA
T1 sequence (P27958 1658-1711): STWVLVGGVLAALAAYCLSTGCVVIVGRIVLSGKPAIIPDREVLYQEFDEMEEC
T1 sequence (P27958 1027-1657): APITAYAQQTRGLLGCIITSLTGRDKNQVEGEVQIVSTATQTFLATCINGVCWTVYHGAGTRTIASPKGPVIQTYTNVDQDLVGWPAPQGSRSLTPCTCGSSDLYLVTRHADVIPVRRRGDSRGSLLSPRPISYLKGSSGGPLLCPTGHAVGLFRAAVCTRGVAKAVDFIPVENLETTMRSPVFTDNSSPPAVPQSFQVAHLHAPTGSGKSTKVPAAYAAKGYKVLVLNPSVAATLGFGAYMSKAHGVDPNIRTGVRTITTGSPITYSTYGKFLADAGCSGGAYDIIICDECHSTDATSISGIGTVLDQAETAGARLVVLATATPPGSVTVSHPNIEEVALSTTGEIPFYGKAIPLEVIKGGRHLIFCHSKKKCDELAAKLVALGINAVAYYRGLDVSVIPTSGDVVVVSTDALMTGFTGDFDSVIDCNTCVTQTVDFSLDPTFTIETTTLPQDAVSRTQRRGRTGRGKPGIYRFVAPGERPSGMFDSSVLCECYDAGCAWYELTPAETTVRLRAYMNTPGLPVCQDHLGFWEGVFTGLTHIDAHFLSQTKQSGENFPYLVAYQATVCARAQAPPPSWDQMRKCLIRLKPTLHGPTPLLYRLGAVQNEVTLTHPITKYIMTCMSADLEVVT

CC(C)(C)OC(=O)N[C@H]1CCCCC/C=C\[C@@H]2C[C@@]2(C(=O)NS(=O)(=O)C2CC2)NC(=O)[C@@H]2C[C@@H](OC(=O)N3Cc4cccc(F)c4C3)CN2C1=O [R7227]
AUC0→∞, ratio of GLSM (90% CI) ([1]; Day 3 vs Day 1): 5.70 (4.07, 7.99)
Cmax, ratio of GLSM (90% CI) ([1]; Day 3 vs Day 1): 3.14 (1.87, 5.25)
C12 h, ratio of GLSM (90% CI) ([1]; Day 3 vs Day 1, N 8, non-missing non-BLQ data): 50.6 (25.6, 100)
C12 h, ratio of GLSM (90% CI) ([1]; Day 3 vs Day 1, N 12, includes extrapolated day 1 values): 65.2 (34.8, 122)
AUC0→∞, ratio of GLSM (90% CI) ([1]; Day 12 vs Day 1): 5.50 (4.05, 7.48)
Cmax, ratio of GLSM (90% CI) ([1]; Day 12 vs Day 1): 3.25 (2.12, 4.96)
C12 h, ratio of GLSM (90% CI) ([1]; Day 12 vs Day 1, N 8, non-missing non-BLQ data): 26.9 (17.7, 41.0)
C12 h, ratio of GLSM (90% CI) ([1]; Day 12 vs Day 1, N 12, includes extrapolated day 1 values): 42.4 (25.7, 70.0)
concentration at 12 h ([1]; oral, 100 mg, Day 1 (alone), N 8, non-missing non-BLQ data from all three treatment days): 0.02 ng/mL
concentration at 12 h ([1]; oral, 100 mg, Day 1 (alone), N 12, includes extrapolated C12 h values from 4 subjects with BLQ values on day 1): 0.01 ng/mL
concentration at 12 h ([1]; oral, Day 3 (with ritonavir single dose), N 8, non-missing non-BLQ data): 1 ng/mL
Cmax ([1]; oral, Day 3 (with ritonavir single dose)): 26.4 ng/mL
concentration at 12 h ([1]; oral, Day 3 (with ritonavir single dose), N 12 (set including extrapolated day 1 values)): 0.55 ng/mL
concentration at 12 h ([1]; oral, Day 12 (with ritonavir multiple dose), N 8, non-missing non-BLQ data): 0.53 ng/mL
Cmax ([1]; oral, Day 12 (with ritonavir multiple dose)): 27.3 ng/mL
concentration at 12 h ([1]; oral, Day 12 (with ritonavir multiple dose), N 12 (set including extrapolated day 1 values)): 0.36 ng/mL
AUC(0-inf) [1, 8]: 14.4 ng·h/mL
Cmax [1, 8]: 8.4 ng/mL
AUC(0-inf) ([1]; po, 100 mg, Day 3 (with ritonavir single dose), R7227 100 mg oral): 82 ng·h/mL
AUC(0-inf) ([1]; po, 100 mg, Day 12 (with ritonavir multiple dose), R7227 100 mg oral): 79.4 ng·h/mL
increase of R7227 AUC0→∞ [1, 9]: approximately 5.5 fold
increase of R7227 Cmax [1, 9]: ~3.25 fold
highest safe and tolerable dose [2]: 1600 mg
metabolism by recombinant CYPs [3]: only CYP3A4 metabolized R7227 to an extent that could influence the pharmacokinetics
CYP isozymes participating in metabolism [4]: multiple CYP isozymes including 3A4, 2C19, 1A2, 2D6, and 2C9 participate in the metabolism
IC50 [5]: ≤ 0.225 nM
IC50 [6]: 1.77 nM

NC(=O)c1ncn([C@@H]2O[C@H](CO)[C@@H](O)[C@H]2O)n1 [ribavirin, 1-((2R,3R,4S,5R)-3,4-dihydroxy-5-hydroxymethyl-tetrahydro-furan-2-yl)-1H-[1,2,4]triazole-3-carboxylic acid amide]
patients with serum amino transferase levels reduced to normal [7]: 40%
